pIC50: −log10 of the molar value.
Tests used:
[1] = MTT cytotoxicity assay, AGS; conditions: human
Protocol: (§1) All cellular lines were grown at 37° C. and 5% CO2 in supplemented Dulbecco's modified Eagle's medium (DMEM) (Cambrex Co., Barcelona, Spain), containing 10% heat-inactivated fetal bovine serum (FBS) (Cambrex Co., Barcelona, Spain), 2 mM glutamine, penicillin (50 U/ml) and streptomycin (50 mg/ml).
(§2) Aliquots of cell suspensions were dispensed at 100 μl volumes into wells of 96-well tissue culture plates at a density of 10^4 cells/well. […] In each MTT assay, every concentration of the assayed substance was tested in three replicates. The inhibitory effect of the various compounds was calculated as percentage inhibition relative to cells treated with vehicle (0.5% DMSO).

[2] = MTT cytotoxicity assay, MDA; conditions: human
Protocol: as §1, §2

[3] = MTT cytotoxicity assay, HeLa; conditions: human
Protocol: as §1, §2

[4] = MTT cytotoxicity assay, T47D; conditions: human
Protocol: as §1, §2

[5] = test system: T47D, human breast adenocarcinoma; test: MTT cytotoxicity assay, T47D; conditions: read-out: IC50 values of MTT cytotoxicity assay; T47D, 24 hours of treatment
Protocol: as §1, §2

[6] = MTT cytotoxicity assay, HCT116; conditions: human
Protocol: as §1, §2

[7] = MTT cytotoxicity assay, 3T3-L1; conditions: mouse
Protocol: All cellular lines were grown at 37° C. and 5% CO2 in supplemented Dulbecco's modified Eagle's medium (DMEM) (Cambrex Co., Barcelona, Spain), containing 10% heat-inactivated fetal bovine serum (FBS) (Cambrex Co., Barcelona, Spain), 2 mM glutamine, penicillin (50 U/ml) and streptomycin (50 mg/ml). […] MSC were maintained in α-MEM with 15% FBS.
as §2

3T3-L1 fibroblasts = test: 3T3-L1 adipocyte differentiation assay / total triglyceride quantification
Protocol: The 3T3-L1 preadipocyte cell line was plated at a concentration of 2×10^5 cell/well in 6-well plates for RNA isolations and tygliceride cunatification. 3T3-L1 fibroblasts were grown until confluence (3 days) in DMEM with 10% FBS and antibiotics. Then (day 0), medium was supplemented with 1 μM dexamethasone, IBMX 0.5 mM and 10 μg/ml insulin, to induce differentiation for 2 days. In day 2, the medium was supplemented only with 5 μg/ml insulin for two more days. All mediums used were additionally supplemented with cannabinoids, or rosiglitazone (1 μM) as control, since day 0. […] For trygliceride cuantification, cells were maintained in medium supplemented with cannabinoids until day 12 and refreshed every two days. […] 3T3-L1 fully differentiated adipocytes were washed in PBS and sonicated three times for 5 seconds in a buffer containing 2 M NaCl, 2 mM EDTA and 50 mM sodium phosphate pH 7.4 to release cellular content. Total triglyceride content released was quantified using a commercial Triglyceride Assay kit (Applied BioSystem, Spain) based on a colorimetric reaction and measured by absorbance at 500 nm in a spectrophotometer.

3T3-L1 pre-adipocytes = test: Glucose uptake (2-deoxy-D-glucose transport); format: cell-based, mouse; conditions: FIG. 6; for glucose uptake: presence and absence of insulin (1.74 μM)
Protocol: For assays of 2-deoxy-D-glucose transport 3T3-L1 pre-adipocytes cultured in 12-well plates were deprived of serum by incubation for 2 hours. […] Glucose transport was initiated by the addition of 50 μl of KRH buffer containing 0.5 mM 2-deoxy-D-[1, 2-3H]glucose (0.25 μCi) to each well; after 5 minutes, transport was terminated by washing the cells 3 times with ice-cold KRH buffer. The cells were solubilized, and the incorporated radioactivity was measured by liquid scintillation counting.
Data are given as means with deviation standard error bars of three replicates. […]

[8] = test system: bone-marrow derived mesenchimal cells; test: Mesenchymal stem cell differentiation to osteoblasts or adipocytes, marker gene expression by QRT-PCR; format: cell-based; conditions: human MSC, compounds in differentiation medium, FIG. 7
Protocol: Cells were plated at 500 cell/cm^2 on P6 plates (TPP, Trasadingen, Switzerland) containing α-MEM medium with 10% FBS. When the cell cultures were 80-90% confluent, the medium was supplemented with 10^−8 M dexamethasone, 0.2 mM ascorbic acid and 10 mM β-glycerolphosphate to induce differentiation to osteoblasts, and 5×10^−7 M dexamethasone, 0.5 mM isobutylmethylxanthine and […] indometacin to induce differentiation to adipocytes. All inducers were from Sigma-Aldrich. MSC (mesenchymal stem cells) were grown in an osteogenic or adipogenic medium for 21 days, together with a corresponding control (in the absence of differentiation inducers). Cell samples were collected at day 13. […] Expression values of nuclear ribosomal DNA were used to normalise the obtained values. Adipocyte and osteoblasts were obtained by differentiation of human mesenchymal stem cells grown in adipogenic or osteoblastogenic specific differentiation culture mediums. […] Bone forming osteoblasts and fat forming adipocytes are both derived from mesenchymal stem cells (MSCs). An increase in PPARg activity due to treatment with the antidiabetic thiazolidinedione (TZD) drug rosiglitazone results in a decreased number of osteoblasts and an increased number of adipocytes.

[9] = test system: adipokines gene expression (IL-6, AdipoQ); test: Adipocyte and adipokine gene expression by PCR in 3T3-L1 adipocytes; conditions: FIG. 5
Protocol: 3T3-L1 fibroblasts were grown until confluence (3 days) in DMEM with 10% FBS and antibiotics. Then (day 0), medium was supplemented with 1 μM dexamethasone, IBMX 0.5 mM and 10 μg/ml insulin, to induce differentiation for 2 days. In day 2, the medium was supplemented only with 5 μg/ml insulin for two more days. All mediums used were additionally supplemented with cannabinoids, or rosiglitazone (1 μM) as control, since day 0. In case of RNA extractions, cells were harvested on day 4. […] GAPDH gene was used as houskeeping gene.

[10] = AGS cells (human gastric adenocarcinoma)
[11] = MDA cells (human breast cancer)
[12] = HeLa cells (human cervical carcinoma)
[13] = T47D cells (human breast adenocarcinoma)
[14] = HCT116 cells (human colon carcinoma)
[15] = 3T3-L1 cells (mouse embryonic fibroblast, adipose-like)

| SMILES | IC50 at 24 h [1] [µM] | IC50 at 24 h [2] [µM] | IC50 at 24 h [3] [µM] | IC50 at 24 h [6] [µM] | IC50 at 24 h [7] [µM] | glucose uptake (3T3-L1 pre-adipocytes) | AdipoQ gene expression [9] | IL-6 gene expression [9] | IC50 at 24 h [1, 10] [µM] | IC50 at 24 h [2, 11] [µM] | IC50 at 24 h [3, 12] [µM] | IC50 at 24 h [4, 13] [µM] | IC50 at 24 h [6, 14] [µM] | IC50 at 24 h [7, 15] [µM] | further results |
| --- | --- | --- | --- | --- | --- | --- | --- | --- | --- | --- | --- | --- | --- | --- | --- |
| C=C(C)C1CCC(C)=C[C@H]1C1=C(O)C(=O)C(CCCCC)=CC1=O (some centres unmarked) [CBD-Q, CBD-Quinone] | 7.44 | 10.1 | 40.5 | 9.8 | 12 | – | – | – | – | – | – | – | – | – | IC50 at 24 h ([4]; IC50 values of MTT cytotoxicity assay, T47D, 24 hours of treatment): 20 µM; pIC50 [5]: 4.77; cytotoxic effect in adipocyte differentiation assay, concentration (3T3-L1 fibroblasts; 3T3-L1, FIG. 8C, lacking bar): higher than 1 μM |
| CCCCCC1=CC(=O)C(C/C=C(\C)CCC=C(C)C)=C(O)C1=O [CBG-Q, CBG Hydroxyquinone] | 48 | 49 | > 50 | 47 | 49 | able to increment the glucosa uptake both in presence and absence of insulin | increment on AdipoQ | reduction of the pro-inflammatory cytokine IL-6 | – | – | – | – | – | – | glucose uptake compared with CBG (3T3-L1 pre-adipocytes; absence of insulin): higher effect than CBG; expression of marker genes in adipocytes and osteoblasts [8]: no significant alteration in expression of marker genes; IC50 at 24 h [4]: 44 µM; differentiation of fibroblasts to adipocytes (total triglyceride), in words (3T3-L1 fibroblasts; 3T3-L1, FIGS. 4 and 8C): stimulate the differentiation of fibroblasts to adipocytes in a stronger way than CBG |
| C=C(C)[C@@H]1CCC(C)=C[C@H]1c1c(O)cc(CCCCC)cc1O [CBD, cannabidiol] | – | – | – | – | – | – | – | – | 25 | > 50 | > 50 | 35 | > 50 | 30 | – |
| CCCCCc1cc(O)c(C/C=C(\C)CCC=C(C)C)c(O)c1 [CBG, cannabigerol] | – | – | – | – | – | able to increment the glucosa uptake both in presence and absence of insulin | increment on AdipoQ | reduction of the pro-inflammatory cytokine IL-6 | > 50 | > 50 | > 50 | 47 | > 50 | 42.2 | – |

From patent publication US8772349B2, “Cannabinoid quinone derivatives” (Vivacell Biotechnology Espana, S.L., priority 2010, dated 2014)
